Results reported in US20140243418A1, “RASAGILINE FOR PARKINSON'S DISEASE MODIFICATION” (Teva Pharmaceutical Industries, Ltd., priority 2008, published 2014).
Values joined by “and” are separate entries in the source; they are usually repeats but may differ in a detail not shown here. Identical values can stand only once. Like-named read-outs stand apart in the source and are kept apart here.

Test system: Early Stage PD patients
Conditions: for 1 mg Early-Delayed Start Slope Difference, Estimate / 2 mg Early-Delayed Start Slope Difference, Estimate / 1 mg-Placebo Slope Difference, Estimate / 2 mg-Placebo Slope Difference, Estimate: Total UPDRS slopes; for 1 mg Early-Delayed Start Slope Difference, Estimate / 2 mg Early-Delayed Start Slope Difference, Estimate: Active Phase weeks 48-72, non-inferiority margin 0.15; for 1 mg Early-Delayed Start Slope Difference, Estimate / 1 mg-Placebo Slope Difference, Estimate / 1 mg-Placebo Week 36-12, Estimate / 1 mg Early-Delayed Start at week 72, Estimate: rasagiline 1 mg; for 2 mg Early-Delayed Start Slope Difference, Estimate / 2 mg-Placebo Slope Difference, Estimate / 2 mg-Placebo Week 36-12, Estimate / 2 mg Early-Delayed Start at week 72, Estimate: rasagiline 2 mg; for 1 mg-Placebo Slope Difference, Estimate / 2 mg-Placebo Slope Difference, Estimate: PC phase weeks 12-36, model that assumes linearity; for 1 mg-Placebo Week 36-12, Estimate / 2 mg-Placebo Week 36-12, Estimate: Total UPDRS, PC phase, alternative categorical model that compares week 36 to week 12; for outcome of the primary analysis (three hierarchal endpoints): both doses, post-hoc; for 1 mg Early-Delayed Start at week 72, Estimate / 2 mg Early-Delayed Start at week 72, Estimate: change from baseline in Total UPDRS, end of the Active Phase
Description: 1 mg/day rasagiline during Phase I and Phase II; • Group 2. 2 mg/day rasagiline during Phase I and Phase II; • Group 3. placebo during Phase I followed by 1 mg/day rasagiline during Phase II; and • Group 4. placebo during Phase I followed by 2 mg/day rasagiline during Phase II.
Thus, ‘early-start’ patients receive 72 weeks of treatment with rasagiline (1 or 2 mg once daily) and ‘delayed-start’ patients receive 36 weeks of placebo followed by 36 weeks of rasagiline (1 or 2 mg once daily). […] If subjects in either treatment group required additional anti-parkinsonian medication during the placebo-controlled stage of the trial, they could proceed directly to Phase II. Once in Phase II, no additional anti-PD therapy is permitted. If the patient requires additional medication in this stage they are discontinued from the study.
1 mg/day rasagiline during Phase I and Phase II (1 mg early start) • 2. 2 mg/day rasagiline during Phase I and Phase II (2 mg early start) • 3. placebo during Phase I followed by 1 mg/day rasagiline during Phase II (1 mg delayed start) • 4. placebo during Phase I followed by 2 mg/day rasagiline during Phase II (2 mg delayed start)
If, at any stage during the placebo-controlled phase the investigator determines that a subject needs additional anti-PD therapy, the subject will proceed to Phase II of the study. The investigator, aided by a questionnaire, will give careful consideration to the issue of a subject's need for additional anti-PD therapy. Scheduled in-clinic visits will be conducted at baseline and at weeks 4, 12, 24 and 36. Therefore, altogether there will be 5 scheduled visits during this phase. Unscheduled visits may be conducted at any time to assess a subject's need for additional anti-PD therapy, for safety reasons or for any other reason.
Thus, subjects who receive 1 mg rasagiline during Phase I will continue to receive 1 mg during Phase II, subjects who receive 2 mg rasagiline during Phase I will continue to receive 2 mg during Phase II, and subjects who receive placebo during Phase I will receive either 1 mg or 2 mg rasagiline during Phase II. The study blind will be maintained. No additional anti-PD therapy will be permitted during this phase. This applies to both the subjects who enter Phase II after completing the full 36-week duration of Phase I and to subjects who are switched from Phase I to Phase II because of a need of additional anti-PD therapy. If, the investigator determines that a subject needs additional anti-PD therapy during Phase II, the subject will be prematurely withdrawn from the study. The investigator, aided by a questionnaire, will give careful consideration to the issue of a subject's need for additional anti-PD therapy. Scheduled in-clinic visits will be conducted every 6 weeks. Therefore, altogether there will be 6 visits during this phase—at weeks 42, 48, 54, 60, 66 and 72. Unscheduled visits may be conducted at any time to assess a subject's need for additional anti-PD therapy, for safety reasons or for any other reason.

[1] = rasagiline 1 mg/day delayed-start, Baseline UPDRS > 25.5 (Upper Quartile)
[2] = rasagiline 1 mg/day delayed-start, Baseline UPDRS ≦ 25.5 (Lower 3 Quartiles)
[3] = rasagiline 1 mg/day delayed-start, all subjects
[4] = rasagiline 1 mg/day delayed-start, all subjects, listed as Rasagiline
[5] = rasagiline 1 mg/day early-start minus delayed-start, Baseline UPDRS > 25.5 (Upper Quartile)
[6] = rasagiline 1 mg/day early-start minus delayed-start, Baseline UPDRS ≦ 25.5 (Lower 3 Quartiles)
[7] = rasagiline 1 mg/day early-start, Baseline UPDRS > 25.5 (Upper Quartile)
[8] = rasagiline 1 mg/day early-start, Baseline UPDRS ≦ 25.5 (Lower 3 Quartiles)
[9] = rasagiline 1 mg/day early-start, all subjects
[10] = rasagiline 1 mg/day early-start, all subjects, listed as Rasagiline

C#CCN[C@@H]1CCc2ccccc21 [rasagiline]
Disease modifying effect (1 mg treatment, according to FDA requirements as predefined in the statistical analysis plan): demonstrated | Disease modifying effect (2 mg treatment): not evident | symptomatic effect observed in TEMPO (ADAGIO placebo controlled (PC) phase, rasagiline 1 mg and 2 mg versus placebo): replicated | change in Total UPDRS score at week 72 (Early Stage PD patients, dose not stated): 2.8 | rate of progression of PD (Early Stage PD patients, improved from 0.139, dose not stated): 0.066 score (change in Total UPDRS)/week | 1 mg Early-Delayed Start Slope Difference, Estimate (ACTE): 0.000 | 1 mg Early-Delayed Start Slope Difference, Estimate (CO): −0.011 | 1 mg Early-Delayed Start Slope Difference, Estimate (PP): −0.011 | 2 mg Early-Delayed Start Slope Difference, Estimate (ACTE): 0.029 | 2 mg Early-Delayed Start Slope Difference, Estimate (CO): 0.021 | 2 mg Early-Delayed Start Slope Difference, Estimate (PP): 0.022 | 1 mg-Placebo Slope Difference, Estimate (CO data analysis set): −0.033 | 1 mg-Placebo Slope Difference, Estimate (ITT data analysis set): −0.046 | 1 mg-Placebo Slope Difference, Estimate (PP data analysis set): −0.037 | 2 mg-Placebo Slope Difference, Estimate (CO data analysis set): −0.061 | 2 mg-Placebo Slope Difference, Estimate (ITT data analysis set): −0.072 | 2 mg-Placebo Slope Difference, Estimate (PP data analysis set): −0.065 | 1 mg-Placebo Week 36-12, Estimate (CO): −0.799 | 1 mg-Placebo Week 36-12, Estimate (ITT): −1.043 | 1 mg-Placebo Week 36-12, Estimate (PP): −0.873 | 2 mg-Placebo Week 36-12, Estimate (CO): −1.463 | 2 mg-Placebo Week 36-12, Estimate (ITT): −1.668 | 2 mg-Placebo Week 36-12, Estimate (PP): −1.553 | difference in change in Total UPDRS score vs delayed treatment, maintained (between Week 48 and Week 72, dose not stated): 1.7 score | outcome of the primary analysis (three hierarchal endpoints) (lower three quartiles of baseline UPDRS scores (≦25.5)): neither dose met all of the primary endpoints | outcome of the primary analysis (three hierarchal endpoints) (upper quartile of baseline total UPDRS (>25.5)): met all 3 primary endpoints | 1 mg Early-Delayed Start at week 72, Estimate (ACTE data analysis set): −1.680 | 1 mg Early-Delayed Start at week 72, Estimate (CO data analysis set): −1.592 | 1 mg Early-Delayed Start at week 72, Estimate (PP data analysis set): −1.594 | 2 mg Early-Delayed Start at week 72, Estimate (ACTE data analysis set): 0.356 | 2 mg Early-Delayed Start at week 72, Estimate (CO data analysis set): −0.088 | 2 mg Early-Delayed Start at week 72, Estimate (PP data analysis set): −0.024 | reduction in Total UPDRS score at week 72 (corresponding to change of 2.8 at week 72): 62.2% | duration for which benefits of early treatment are sustained (early treatment vs later initiation): at least 18 months | Primary 2: estimated change in total UPDRS from baseline to week 72 [1]: 5.41 | Primary 3: rate of change in UPDRS, weeks 48-72 [1]: 0.095 UPDRS units/wk | Primary 2: estimated change in total UPDRS from baseline to week 72 [2]: 4.03 | Primary 3: rate if change in UPDRS, weeks 48-72 [2]: 0.08 UPDRS units/wk | Primary 2: estimated change in total UPDRS from baseline to week 72 [3]: 4.50 | Primary 3: rate of change in UPDRS, weeks 48-72 [3]: 0.085 UPDRS units/wk | Primary 2: estimated change in total UPDRS from baseline to week 72 [4]: 4.52±0.56 | Primary 3: rate of change in UPDRS, weeks 48-72 [4]: 0.085±0.02 UPDRS units/wk | Primary 2: estimated change in total UPDRS from baseline to week 72, early-start-delayed-start [5]: −3.40±1.66 and −3.40 | Primary 3: rate of change in UPDRS, weeks 48-72, early-start-delayed-start [5]: −0.02 UPDRS units/wk | Primary 2: estimated change in total UPDRS from baseline to week 72, early-start-delayed-start [6]: −1.08 | Primary 3: rate if change in UPDRS, weeks 48-72, early-start-delayed-start [6]: 0.004 UPDRS units/wk | Primary 2: estimated change in total UPDRS from baseline to week 72, early-start-delayed-start (rasagiline 1 mg/day early-start minus delayed-start, all subjects): −1.68±0.75 and −1.68 | Primary 3: rate of change in UPDRS, weeks 48-72, early-start-delayed-start (rasagiline 1 mg/day early-start minus delayed-start, all subjects, non-inferiority margin 0.15): 0.00 UPDRS units/wk | Primary 2: estimated change in total UPDRS from baseline to week 72 [7]: 2.01 | Primary 3: rate of change in UPDRS, weeks 48-72 [7]: 0.075 UPDRS units/wk | Primary 2: estimated change in total UPDRS from baseline to week 72 [8]: 2.94 | Primary 3: rate if change in UPDRS, weeks 48-72 [8]: 0.09 UPDRS units/wk | Primary 2: estimated change in total UPDRS from baseline to week 72 [9]: 2.82 | Primary 3: rate of change in UPDRS, weeks 48-72 [9]: 0.085 UPDRS units/wk | Primary 2: estimated change in total UPDRS from baseline to week 72 [10]: 2.82±0.53 | Primary 3: rate of change in UPDRS, weeks 48-72 [10]: 0.085±0.02 UPDRS units/wk
